Assay results as given in patent US12410153B2, “Compounds, compositions and methods” (Avalo Therapeutics, Inc., priority 2014, dated 2025).
Read-outs that look alike come from different tables or passages of the source.

Experiment: Repeated once-daily oral dosing with food (Days 1-7) in healthy subjects, PK and PD
Assay type: in vivo, human
Conditions: for AUC(0-t) / Cmax / Vd/F / Tmax / AUC(0-inf) / half-life: both sexes, human, plasma, oral; for Cmax: read-out: Cmax, Mean (SD); for AUC(0-inf): read-out: AUCinf, Mean (SD)
Description: A randomized, double-blind, placebo-controlled, parallel-dose group in-patient study is conducted to investigate the pharmacodynamic (PD) effects of crystalline Form II of Compound (I) in healthy subjects.
The study is designed as a three-part, sequential study. The sequential nature of the study ensures that a range of doses are investigated first in a young, healthy population (Part 1) before proceeding to higher doses in the healthy population and the comparator populations (intermediate age and elderly) (Parts 2 and 3). For the purposes of this study, “young” refers to a subject who is 18 to 45 years of age, “intermediate age” refers to a subject who is 46 to 64 years of age, and “elderly” refers to a subject who is 65 years of age or older.
After a screening period of up to 21 days (Days −23 to −3), 16 healthy, young male and female subjects are randomly assigned to a dose group as shown in Table 9.
Each parallel dose group is balanced for gender (approximately equal number of males and females). The randomized subjects are domiciled from Day −1 through Day 8. On Day −1, the subjects receive placebo tablets in the fed state and undergo ambulatory blood pressure monitoring (ABPM) and safety assessments to establish time-matched baselines. On Days 1-7, the subjects receive the study drug in the fed state and undergo safety, pharmacokinetic (PK) and pharmacodynamics (PD) assessments. On Days 8-11, follow-up PK and safety assessments are performed.
Safety assessments include Clinician-Administered Dissociative States Scale (CADSS), Columbia-Suicide Severity Rating Scale (C-SSRS), concomitant medication, adverse event (AE) and vital sign assessments. In PK assessments, blood samples are taken and analyzed to determine PK parameters such as Cmax, Tmax, AUC0-24, and t1/2. PD assessments include ABPM, plasma brain-derived neurotrophic factor (BDNF) measurements, and Profile of Mood States (POMS) assessments.
After a screening period of up to 21 days (Days −23 to −3), 16 subjects (8 healthy, young male and female subjects, and 8 healthy, intermediate age male and female subjects) are randomly assigned to a dose group as shown in Table 10.
After a screening period of up to 21 days (Days −23 to −3), 16 subjects (8 healthy, young male and female subjects, and 8 healthy, elderly male and female subjects) are randomly assigned to a dose group as shown in Table 11.

[1] = 8 mg, young subjects, 8 mg, Day 7
[2] = 12 mg, intermediate age, 12 mg, Day 7

In the case of Cc1ccc(COC(=O)N2CC[C@H](CNc3ncccn3)[C@H](F)C2)cc1 [Form II, 4-methylbenzyl (3S, 4R)-3-fluoro-4-[(pyrimidin-2-ylamino)methyl] piperidine-1-carboxylate], the “average 7-day plasma BDNF values compared to placebo” value (16 and 20 mg) is reported as “trend for an increase”, the “apparent oral clearance lower in female vs male subjects” value (Day 7) is reported as “approximately 15%” and the “average Cmax higher in intermediate age and elderly subgroups vs young” value (Day 7) is reported as “approximately 30%”. The “t½ higher in female vs male subjects” value (Day 7) was “approximately 16%”, the “mean plasma concentrations higher in female vs male subjects” value (Day 7, 2 to 24 hours postdose) was “approximately 20%” and the “Cmax and AUC vs dose” value (Days 1 and 7, 8 to 20 mg) was “approximately dose-proportional”. For the same molecule, the “average 24 hour and daytime SBP and DBP” value (all doses compared to placebo, maximal by Day 4) was “increased”, the AUC(0-t) (8 mg, young subjects, 8 mg, Day 1, read-out: AUC0-24, Mean (SD)) was 1500 ng·h/mL and the AUC(0-t) (8 mg, young subjects, 8 mg, Day 1, read-out: AUClast, Mean (SD)) was 1490 ng·h/mL. It also gave a Cmax (8 mg, young subjects, 8 mg, Day 1) of 179 ng/mL, a Vd/F (8 mg, young subjects, 8 mg, Day 1, read-out: Vz/F, Mean (SD)) of 101 L and a Tmax (8 mg, young subjects, 8 mg, Day 1, read-out: tmax, Mean (SD)) of 2.17 h. It also gave a Tmax (8 mg, young subjects, 8 mg, Day 1, read-out: tmax, Median) of 2 h, an AUC(0-t) (8 mg, young subjects, 8 mg, Day 7, read-out: AUC0-24, Mean (SD)) of 2400 ng·h/mL and an AUC(0-inf) [1] of 4110 ng·h/mL. It also gave an AUC(0-t) (8 mg, young subjects, 8 mg, Day 7, read-out: AUClast, Mean (SD)) of 3770 ng·h/mL, a Cmax [1] of 224 ng/mL and a half-life (8 mg, young subjects, 8 mg, Day 7, read-out: t1/2, Mean (SD) (converted)) of 17.2 h. For the same molecule, the Tmax (8 mg, young subjects, 8 mg, Day 7, read-out: tmax, Mean (SD)) was 2.75 h, the Tmax (8 mg, young subjects, 8 mg, Day 7, read-out: tmax, Median) was 3 h and the half-life (12 mg, Day 7, read-out: average t½, range across age groups) was 20 to 28 h. The AUC(0-t) (12 mg, elderly, 12 mg, Day 1, read-out: AUC0-24, Mean (SD)) was 2130 ng·h/mL, the AUC(0-t) (12 mg, elderly, 12 mg, Day 1, read-out: AUClast, Mean (SD)) was 2100 ng·h/mL and the Cmax (12 mg, elderly, 12 mg, Day 1) was 229 ng/mL. The Vd/F (12 mg, elderly, 12 mg, Day 1, read-out: Vz/F, Mean (SD)) was 164 L, the Tmax (12 mg, elderly, 12 mg, Day 1, read-out: tmax, Mean (SD)) was 1.93 h and the Tmax (12 mg, elderly, 12 mg, Day 1, read-out: tmax, Median) was 1.75 h. It also gave an AUC(0-t) (12 mg, elderly, 12 mg, Day 7, read-out: AUC0-24, Mean (SD)) of 4520 ng·h/mL, an AUC(0-inf) (12 mg, elderly, 12 mg, Day 7) of 10300 ng·h/mL and an AUC(0-t) (12 mg, elderly, 12 mg, Day 7, read-out: AUClast, Mean (SD)) of 9140 ng·h/mL. The Cmax (12 mg, elderly, 12 mg, Day 7) was 349 ng/mL, the Vd/F (12 mg, elderly, 12 mg, Day 7, read-out: Vss/F, Mean (SD)) was 111 L and the half-life (12 mg, elderly, 12 mg, Day 7, read-out: t1/2, Mean (SD) (converted)) was 28.3 h. The Tmax (12 mg, elderly, 12 mg, Day 7, read-out: tmax, Mean (SD)) was 2.26 h, the Tmax (12 mg, elderly, 12 mg, Day 7, read-out: tmax, Median) was 2 h and the AUC(0-t) (12 mg, intermediate age, 12 mg, Day 1, read-out: AUC0-24, Mean (SD)) was 2000 ng·h/mL. The AUC(0-t) (12 mg, intermediate age, 12 mg, Day 1, read-out: AUClast, Mean (SD)) was 1980 ng·h/mL, the Cmax (12 mg, intermediate age, 12 mg, Day 1) was 257 ng/mL and the Vd/F (12 mg, intermediate age, 12 mg, Day 1, read-out: Vz/F, Mean (SD)) was 201 L. It also gave a Tmax (12 mg, intermediate age, 12 mg, Day 1, read-out: tmax, Mean (SD)) of 2.5 h, a Tmax (12 mg, intermediate age, 12 mg, Day 1, read-out: tmax, Median) of 2.5 h and an AUC(0-t) (12 mg, intermediate age, 12 mg, Day 7, read-out: AUC0-24, Mean (SD)) of 3840 ng·h/mL. The AUC(0-inf) [2] was 8100 ng·h/mL, the AUC(0-t) (12 mg, intermediate age, 12 mg, Day 7, read-out: AUClast, Mean (SD)) was 7470 ng·h/mL and the Cmax [2] was 360 ng/mL. The Vd/F (12 mg, intermediate age, 12 mg, Day 7, read-out: Vss/F, Mean (SD)) was 121 L, the half-life (12 mg, intermediate age, 12 mg, Day 7, read-out: t1/2, Mean (SD) (converted)) was 26.1 h and the Tmax (12 mg, intermediate age, 12 mg, Day 7, read-out: tmax, Mean (SD)) was 1.83 h. It also gave a Tmax (12 mg, intermediate age, 12 mg, Day 7, read-out: tmax, Median) of 1.5 h.
